Here are results for two compounds from publication PMC3964211, “Pharmacokinetic modeling optimizes inhibition of the ‘undruggable’ EWS-FLI1 transcription factor in Ewing Sarcoma” (Oncotarget, 2013).

Assay [1] has as its system caveolin-1. In words: Caveolin-1 IHC staining of xenograft tumors. Type of assay: in vivo, SCID/bg mice. The conditions noted are these: xenograft tumors of mice treated BID IP 400 mg/kg, 3 days. On the procedure: We evaluated the effect of EWS-FLI1 in animals treated with YK-4-279 upon caveolin-1, a recognized direct gene target whose expression is increased by EWS-FLI1 [22, 23]. […] In addition, the staining pattern changes from membraneous to a more diffuse pattern (Figure 5A).
Two million A4573 or SK-ES Ewing's sarcoma cells in 0.1 mL were injected into an orthotopic paraosseous location, adjacent to the left proximal tibia, in 5-week-old female severe combined immunodeficient-beige (SCID/bg) mice (Harlan Laboratories, Inc., Indianapolis, IN). After primary tumors reached 250 – 300 mm^3 size, mice were randomized and received intraperitoneal injection (IP) with vehicle control (0.25% Lecithin solution or DMSO), (S)-YK-4-279, (R)-YK-4-279 or racemic YK-4-279 at a dose of 400 mg/kg twice a day (BID) for 7 days in a week. The tumor volume was determined by the formula (D × d2/6) × p, where D was the longer diameter and d was the shorter diameter. Tumor volume was monitored every day by caliper until the tumor size reaches 1cm^3. Mice were euthanized and primary tumors were collected. […]
Five micron sections from formalin fxed paraffin embedded tissues were de-paraffinized with xylenes and rehydrated through a graded alcohol series. […] The sections were evaluated, in blinded fashion two times, by a pathologist (B.K.).

Assay [2] has as its system SK-ES xenograft. In words: Orthotopic mouse xenograft model, SK-ES, IP dosing. Type of assay: in vivo. The conditions noted are these: for Regression of tumor volume over 3 days: SK-ES xenograft, 3-day, six-dose. The procedure: A series of models that combined results from in vitro colony assays and in vivo PK data were developed to evaluate several potential dosing schemes for the mice (Supplementary Figures 1A-E). We selected an IP dosing strategy (twice daily (BID) injections of […] racemic mixture) that would maintain a 3 ¼M plasma levels for greater than 72 hours in the mice (Figure 3A). With this IP dosing regimen, xenograft growth of A4573 was 70% less in the YK-4-279 treatment group compared to vehicle control (Figure 3B, p=0.04). […] To confrm the impact of YK-4-279 treatment on xenograft growth, mice with SK-ES xenografts were treated with racemic, (S), or (R)-YK-4-279 until control tumors reached 1 cm^3. Xenograft growth was reduced for those mice receiving both racemic and (S)-YK-4-279 over the control (Figure 3D, p=0.02 and p=0.003, respectively). […] Tumors were analyzed for drug levels of racemic, (R)-, and (S)-YK-4-279. Three of four mice treated with racemic compound had tumor levels of (S)-YK-4-279 that ranged from ~12-35 ¼g eq/g, which correlated with tumor growth ratios of less than 1.0, indicating response to the drug (Figure 3F). Those animals treated with the active (S)-YK-4-279 levels had tumor levels that were below 10 ¼g eq/g (Figure 3F). Tumor levels of (R)-YK-4-279 are also provided (Supplementary Figure 1F).
In order to evaluate tumors from animals treated in a similar fashion, including resection prior to central necrosis in controls, a 3-day, six-dose, experiment was executed. Treatment was initiated with racemic, (S)-, or (R)-YK-4-279 using BID IP administration at 400 mg/kg when tumors were well established at a volume of 250 to 300 mm^3. Both ES models treated with either racemic or (S)-YK-4-279 regressed by 25–30% of tumor volume over 3 days, while tumors grew in control and (R)-YK-4-279 treated animals (Figures 4A and B). Two hours following the 6th dose, mice were euthanized for tumor analysis. […] To confirm the apoptotic cell death, sections from A4573 tumors were stained with TUNEL (Figures 4D) and there was a 3 – 4 fold increase in TUNEL-positive cells treated with (S)-YK-4-279 compared to (R)-YK-R-279 treated tumors (Figure 4E). […] Levels of each enantiomer were measured in tumor samples and (S)-YK-4-279 levels correlated with clinical regression (Supplemental Figure 2B–E).
Two million A4573 or SK-ES Ewing's sarcoma cells in 0.1 mL were injected into an orthotopic paraosseous location, adjacent to the left proximal tibia, in 5-week-old female severe combined immunodeficient-beige (SCID/bg) mice (Harlan Laboratories, Inc., Indianapolis, IN). After primary tumors reached 250 – 300 mm^3 size, mice were randomized and received intraperitoneal injection (IP) with vehicle control (0.25% Lecithin solution or DMSO), (S)-YK-4-279, (R)-YK-4-279 or racemic YK-4-279 at a dose of 400 mg/kg twice a day (BID) for 7 days in a week. The tumor volume was determined by the formula (D × d2/6) × p, where D was the longer diameter and d was the shorter diameter. Tumor volume was monitored every day by caliper until the tumor size reaches 1cm^3. Mice were euthanized and primary tumors were collected. For the pharmacodynamics study mice were randomized and received 6 doses treatment with vehicle control (0.25% Lecithin solution or DMSO), (S)-YK-4-279, (R)-YK-4-279 or racemic YK-4-279 at a dose of 400 mg/kg twice a day (BID). Mice were euthanized after 2 hours of last 6th dosing and primary tumors were collected. Animal studies were approved by an Institutional Animal Care and Use Committee of the Georgetown University.
The plasma and tumor sample analysis was performed using calibration standards and Quality Control (QC) samples prepared in control rat or mouse plasma and tumor tissues. Plasma and tumor calibration standards were prepared from stock solutions of YK-4-279. […]

As for `COc1ccc(C(=O)CC2(O)C(=O)Nc3c(Cl)ccc(Cl)c32)cc1` (centres unmarked) [YK-4-279], the Caveolin-1 immunohistochemical staining entry in assay [1] is on record as “reduced caveolin-1 staining”. In addition, the Overall survival result in assay [2] (SK-ES xenograft mice, BID IP 400 mg/kg, p=0.013 vs control) was “improved overall survival”. The “Xenograft growth less than control group” value in assay [2] (SK-ES xenograft mice, BID IP racemic mixture (375 mg/kg in text, 400 mg/kg in Figure 3 legend), p=0.02) was 70%. Also, the “Regression of tumor volume over 3 days” value in assay [2] (BID IP 400 mg/kg) is given as 25–30%. Moreover, in assay [2] (SK-ES xenografts, BID IP 400 mg/kg until control tumors reached 1 cm^3), the “Xenograft growth over the control” value is reported as “reduced”. Also, in assay [2] (SK-ES xenografts, three of four mice treated with racemic compound), the Tumor growth ratios result is “less than 1.0”.
For the compound `COc1ccc(C(=O)C[C@]2(O)C(=O)Nc3c(Cl)ccc(Cl)c32)cc1` [(R)-YK-4-279], the Caveolin-1 immunohistochemical staining entry in assay [1] was “expected membrane caveolin-1 expression”. Further, the “Regression of tumor volume over 3 days” value in assay [2] (BID IP 400 mg/kg) is given as “tumors grew”.
